Test results reported in patent US20230183356A1, “HIF-1a MODULATORS AND USES THEREOF” (Brown University, priority 2021, published 2023).
Where a SMILES comes first, the peptide text is derived from it. The star is where a group is joined. Cbz = O=C(OCc1ccccc1)*

Tested on: HIF-1α
Assay: Western blot of HIF-1α expression in HCT116 cells
Format: cell-based
Conditions: for HIF-1α expression / HIF-1α expression increased by Smurf2 knockdown, effect of treatment: HCT116 cells; for HIF-1α expression: normoxia; for HIF-1α expression increased by Smurf2 knockdown, effect of treatment: Smurf2 siRNA 48 hours, normoxia 6 hours, Ro3306 5 μM, palbociclib 10 μM, abemaciclib 1 μM
Experimental: HCT116 cells were obtained from American Type Culture Collection (ATCC) and were maintained according to ATCC recommendation in McCoy's 5A medium (Hyclone) with 10% fetal bovine serum (FBS) (Hyclone) and 1% penicillin/streptomycin (P/S) (Corning). Cells were regularly tested for mycoplasma and authenticated. Cells were maintained at 37° C. in 5% CO2. Hypoxia treatment was performed in a hypoxia chamber (In vivo2, Ruskinn) which maintains 0.5% O2 and 5% CO2 at 37° C.
Plasmid expression was performed by 24 hours transfection using Opti-MEM (Thermo Fisher Scientific) and Lipofectamine 2000 (Life Technologies). Knockdown experiments were performed by siRNA transfection for 48 hours with Opti-MEM and Lipofectamine RNAiMAX (Life Technologies), according to the manufacturer's protocol.
Treated cells were lysed in RIPA buffer (Sigma). Protein concentrations were determined using a BCA Protein Assay Kit (Life Technologies). Equal amounts of total protein were boiled with NuPAGE™ LDS sample buffer (Thermo Fisher Scientific) and reducing agent (Invitrogen) or 2-mercaptoethanol. Samples were analyzed with SDS-PAGE. Proteins were transferred to an Immobilon-P PVDF membrane (EMD Millipore). Primary and secondary antibodies were added in order. Signals were detected after addition of the ECL western blotting substrate (Thermo Fisher Scientific).

Row | Compound | HIF-1α expression upon Smurf2 overexpression (HCT116 cells transfected with myc-Smurf2 plasmid, 6 hours, dose-dependent) | HIF-1α expression (2 μM, 6 hours) | HIF-1α expression (5 μM, 6 hours) | HIF-1α expression increased by Smurf2 knockdown, effect of treatment | HIF-1α expression increased by Smurf2 knockdown, effect of treatment (listed as Ro3306)
1 | CC(C)C[C@@H](C=O)NC(=O)[C@H](CC(C)C)NC(=O)[C@H](CC(C)C)NC(=O)OCc1ccccc1 [MG132] (Cbz-Leu-Leu-Leu-aldehyde) | partially rescued | increased | more robustly |  | 
2 | O=C1NC(=NCc2cccs2)S/C1=C\c1ccc2ncccc2c1 [Ro-3306] |  |  |  | not reversed | further increased
